Here are results for ten molecules from patent US8071611B2, “Spirocyclic heterocyclic derivatives and methods of their use” (Adolor Corporation, priority 2003, dated 2011).

The target of experiment [1] is T1, cloned human κ opioid receptor (Homo sapiens, UniProt P41145).
T1 construct: expressed in transfected cells; host or cells: CHO cells (membranes)
In words: Receptor binding: inhibition of [3H]diprenorphine binding to cloned human κ opioid receptor. Conditions: for inhibition at 10 µM: read-out: % Inhibition at 10 μM (κ); for % Inhibition at 10 μM (κ): [3H]diprenorphine binding. How it is done: (§1) IC50 values were obtained by nonlinear analysis of the data using GraphPad Prism version 3.00 for Windows (GraphPad Software, San Diego). Ki values were obtained by Cheng-Prusoff corrections of IC50 values.
(§2) After dilution in buffer A and homogenization as before, membrane proteins (10-80 μg) in 250 μL were added to mixtures containing test compound and [^3H]diprenorphine (0.5 to 1.0 nM, 40,000 to 50,000 dpm) in 250 μL of buffer A in 96-well deep-well polystyrene titer plates (Beckman). After incubation at room temperature for one hour, the samples were filtered through GF/B filters that had been presoaked in a solution of 0.5% (w/v) polyethylenimine and 0.1% (w/v) bovine serum albumin in water. The filters were rinsed 4 times with 1 mL of cold 50 mM Tris HCl, pH 7.8 and radioactivity remaining on the filters determined by scintillation spectroscopy. Nonspecific binding was determined by the minimum values of the titration curves and was confirmed by separate assay wells containing 10 μM naloxone.
(§3) To determine the equilibrium dissociation constant for the inhibitors (Ki), radioligand bound (cpm) in the presence of various concentrations of test compounds was measured. The concentration to give half-maximal inhibition (EC50) of radioligand binding was determined from a best nonlinear regression fit to the following equation,
(§4) The nonlinear regression fit was performed using the program Prism® (GraphPad Software, San Diego, Calif.). The Ki values were then determined from the EC50 values by the following equation,
(§5) [formula] where [ligand] is the concentration of radioligand and Kd is the equilibrium dissociation constant for the radioligand.
as §1
(§6) [formula] where [ligand] is the concentration of radioligand and Kd is the equilibrium dissociation constant for the radioligand. Receptor-Mediated [^35S]GTP[…]S Binding

Experiment [2] concerns the target T2, cloned human δ opioid receptor (Homo sapiens, UniProt P41143).
T2 construct: expressed in transfected cells; host or cells: CHO cells (membranes)
Kind of experiment: Receptor-mediated [35S]GTPγS binding, membranes containing cloned human δ opioid receptors. The experiment is classed as biochemical. Conditions: agonist stimulation of [35S]GTPγS binding. As to the method: (§7) Assays are carried out in 96-well FlashPlates® (Perkin Elmer Life Sciences, Inc, Boston, Mass.). Membranes prepared from CHO cells expressing the appropriate receptor (50-100 μg of protein) are added to assay mixtures containing agonist with or without antagonists, 100 μM [^35S]GTPγS (approx. 100,000 dpm), 3.0 μM GDP, 75 mM NaCl, 15 mM MgCl2, 1.0 mM ethylene glycol-bis(β-aminoethyl ether)-N,N,N′,N′-tetracetic acid, 1.1 mM dithiothreitol, 10 μg/mL leupeptin, 10 μg/mL pepstatin A, 200 μg/mL bacitracin, and 0.5 μg/mL aprotinin in 50 mM Tris-HCl buffer, pH 7.8. After incubation at room temperature for one hour, the plates are sealed, centrifuged at 800×g in a swinging bucket rotor for 5 min and bound radioactivity determined with a TopCount microplate scintillation counter (Packard Instrument Co., Meriden, Conn.).
as §7, with “pM [^35S]GTP[…]S” for “μM [^35S]GTPγS”
For orientation: Binding of GTPγS marks nucleotide exchange on a G protein.

Experiment [3] deals with T2, cloned human δ opioid receptor. Kind of experiment: Receptor binding: inhibition of [3H]diprenorphine binding to cloned human δ opioid receptor. How it is done: as §1, §2, §3, §4, §5, §1, §6
The target in experiment [4] is T3, cloned human μ opioid receptor (Homo sapiens, UniProt P35372).
T3 construct: expressed in transfected cells; host or cells: CHO cells (membranes)
Kind of experiment: Receptor binding: inhibition of [3H]diprenorphine binding to cloned human μ opioid receptor. As to conditions: for % Inhibition at 10 μM (μ): [3H]diprenorphine binding, cloned human μ opioid receptor; for inhibition at 10 µM: read-out: % Inhibition at 10 μM (μ). As to the method:
as §1, §2, §3, §4, §5, §1, §6

[5] abbreviates: [3H]diprenorphine displacement, cloned human δ opioid receptor, read-out: Ki(δ).

Structures can show the parent of a compound that is named as a salt. Where two headings read alike, the source gives them in different places.

T3 sequence (P35372 whole entry): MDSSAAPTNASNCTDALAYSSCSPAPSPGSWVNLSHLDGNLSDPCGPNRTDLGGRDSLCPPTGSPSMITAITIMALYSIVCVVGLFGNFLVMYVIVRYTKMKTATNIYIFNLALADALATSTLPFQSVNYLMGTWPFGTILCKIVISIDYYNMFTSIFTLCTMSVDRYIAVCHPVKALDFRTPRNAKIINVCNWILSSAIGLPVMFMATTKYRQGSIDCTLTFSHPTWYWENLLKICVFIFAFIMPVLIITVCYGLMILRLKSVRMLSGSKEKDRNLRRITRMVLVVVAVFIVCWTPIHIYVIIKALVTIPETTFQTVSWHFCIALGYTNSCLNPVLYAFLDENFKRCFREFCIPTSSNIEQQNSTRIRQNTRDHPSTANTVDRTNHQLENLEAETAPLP
T2 sequence (P41143 whole entry): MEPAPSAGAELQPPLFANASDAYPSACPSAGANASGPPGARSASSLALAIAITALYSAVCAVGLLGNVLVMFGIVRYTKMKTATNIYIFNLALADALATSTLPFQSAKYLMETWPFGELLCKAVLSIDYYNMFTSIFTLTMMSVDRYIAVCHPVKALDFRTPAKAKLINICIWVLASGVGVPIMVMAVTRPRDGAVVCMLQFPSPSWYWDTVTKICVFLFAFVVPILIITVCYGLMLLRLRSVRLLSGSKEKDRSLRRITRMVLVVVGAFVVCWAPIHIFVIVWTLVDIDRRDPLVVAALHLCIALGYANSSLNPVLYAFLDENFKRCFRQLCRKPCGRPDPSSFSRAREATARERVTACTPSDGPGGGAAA
T1 sequence (P41145 whole entry): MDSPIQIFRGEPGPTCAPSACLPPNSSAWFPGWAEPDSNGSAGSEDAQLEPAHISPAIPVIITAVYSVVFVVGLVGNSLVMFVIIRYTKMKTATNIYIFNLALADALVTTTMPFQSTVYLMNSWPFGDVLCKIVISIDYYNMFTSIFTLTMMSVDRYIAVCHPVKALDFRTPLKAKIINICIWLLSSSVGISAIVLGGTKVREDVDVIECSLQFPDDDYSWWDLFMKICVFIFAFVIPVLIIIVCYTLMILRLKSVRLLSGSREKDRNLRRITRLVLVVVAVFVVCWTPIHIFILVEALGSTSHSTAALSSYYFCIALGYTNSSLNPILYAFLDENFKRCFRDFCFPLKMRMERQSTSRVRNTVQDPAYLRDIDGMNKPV

The inhibition is the change of the read-out against control, counted positive when it falls. The EC50 is the concentration at which the effect is half-maximal. Low values mean a more potent agent, high ones a less potent agent. In general, Ki refers to a measure of affinity in units of concentration, obtained from inhibition or displacement. With `CCN(CC)C(=O)c1ccc(C2=CC3(CCNCC3)Oc3ccc(F)cc32)cc1` [Example Z2, 4-[(4-N,N-diethylaminocarbonyl)phenyl]-6-fluoro-spiro[2H,1-benzopyran-2,4′-piperidine]hydrochloride], in experiment [1], the inhibition at 10 µM was 17%. This molecule yielded an EC50 in experiment [2] of 70 nM. The values for the Ki in experiment [3] and in experiment [4] were 2.6 nM and 4500 nM, respectively.
Broadly, the % Inhibition is the percentage by which the read-out fell short of the control. A low value points to little suppression. For `CCN(CC)C(=O)c1ccc(C2=CC3(CCNCC3)Oc3ccc(O)cc32)cc1.Cl` [Example Z3, 4-[(4-N,N-diethylaminocarbonyl)phenyl]-6-hydroxyspiro[2H,1-benzopyran-2,4′-piperidine]hydrochloride], the Ki in experiment [1] ([3H]diprenorphine displacement, cloned human κ opioid receptor, read-out: Ki(κ)) came to 790 nM; in experiment [3] (setting [5]) it was 0.36 nM. This molecule also had a concentration for a half-maximal effect (EC50) in experiment [2] of 1.4 nM. In addition, the “% Inhibition at 10 μM (μ)” value in experiment [4] is given as 50%.
Regarding `CCN(CC)C(=O)c1ccc(C2CC3(CCNCC3)Oc3ccccc32)cc1.Cl` (centres unmarked) [Example Z4, 4-[(4-N,N-diethylaminocarbonyl)phenyl]-3,4-dihydrospiro[2H,1-benzopyran-2,4′-piperidine]hydrochloride], the “% Inhibition at 10 μM (κ)” value in experiment [1] (cloned human κ opioid receptor) turned out to be 19%. Besides, the “% Inhibition at 10 μM (μ)” value in experiment [4] turned out to be 34%.
Take `CCN(CC)C(=O)c1ccc(C2=CC3(CCN(C)CC3)Oc3ccccc32)cc1` [Example Z5, 4-[(4-N,N-diethylaminocarbonyl)phenyl]-N-methyl-spiro[2H,1-benzopyran-2,4′-piperidine]hydrochloride]: the inhibition at 10 µM in experiment [1] is 23%; in experiment [4], 17%. In experiment [2], the EC50 was 140 nM. Also, the Ki in experiment [3] is 5.8 nM.
Consider `CCCN(CC1CC1)C(=O)c1ccc(C2=CC3(CCNCC3)Oc3ccccc32)cc1` [Example Z7, 4-[(4-N-propyl-N-cyclopropylmethylaminocarbonyl)phenyl]-spiro[2H,1-benzopyran-2,4′-piperidine]hydrochloride], for which the inhibition at 10 µM in experiment [1] is 51%. Further, in experiment [2], the midpoint of the response, the EC50, lay at 29 nM. Moreover, the Ki in experiment [3] was 1.7 nM; in experiment [4], 2500 nM.
Consider `O=C(O)C1CCN(C(=O)c2ccc(C3=CC4(CCNCC4)Oc4ccccc43)cc2)CC1` [Example Z9, 4-[4-(4-carboxypiperidineaminocarbonyl)phenyl]-spiro[2H,1-benzopyran-2,4′-piperidine]hydrochloride], for which the inhibition at 10 µM in experiment [1] came to 24%; in experiment [4], 17%. The same molecule had an EC50 in experiment [2] of 160 nM. For the same molecule, the affinity in experiment [3] corresponds to a Ki of 15 nM.
Consider `C1=C(c2ccc(-c3nn[nH]n3)cc2)c2ccccc2OC12CCNCC2.O=C(O)C(F)(F)F` [Example Z10, 4-[4-(2H-tetrazolyl)phenyl]-spiro[2H,1-benzopyran-2,4′-piperidine]trifluoroacetic acid salt], for which the “% Inhibition at 10 μM (κ)” value in experiment [1] (cloned human κ opioid receptor) came out at 1.3%. This molecule displayed an EC50 in experiment [2] of 22 nM. Besides, the Ki in experiment [3] (setting [5]) came out at 2.7 nM. In addition, in experiment [4], the “% Inhibition at 10 μM (μ)” value is listed as 29%.
Take `C1=C(c2cccnc2)c2ccccc2OC12CCNCC2` [Example Z12, 4-(3-pyridyl)-spiro[2H,1-benzopyran-2,4′-piperidine]hydrochloride]: the inhibition at 10 µM came out at 44% in experiment [1] and 36% in experiment [4]. The molecule also showed a Ki in experiment [3] of 54 nM.
Regarding `CS(=O)(=O)c1ccc(C2=CC3(CCNCC3)Oc3ccccc32)cc1` [Example Z13, 4-[4-(methanesulfonyl)-phenyl]-spiro[2H,1-benzopyran-2,4′-piperidine]hydrochloride], the values for the inhibition at 10 µM in experiment [1] and in experiment [4] were 17% and 41%, respectively. For the same molecule, the Ki in experiment [3] was found to be 28 nM.
For `CCN(CC)C(=O)c1ccc(C2=CC3(CC4CCC(C3)N4)Oc3ccccc32)cc1` (centres unmarked) [Example Z14, 4-[(4-N,N-diethylaminocarbonyl)phenyl]spiro[2H,1-benzopyran-2,4′-nortropine]hydrochloride] the same measures were 8%, 24% and 26 nM.
